These are literature values, as cited in article PMC12114947, “Evaluation of Violacein Metabolic Stability and Metabolite Identification in Human, Mouse, and Rat Liver Microsomes” (Pharmaceutics, 2025).

For data set [1] the following is noted: cited from earlier work.
On the set-up of data set [2]: method as in PMID 12920490, PMID 24002099, PMID 10445386. The conditions noted are these: based on the human hepatic microsomal pathway; cited from earlier work.
The conditions of data set [3]: cited from earlier work. This is another data set of the same source.
Details of data set [4]: method as in PMID 9408857. The conditions noted are these: rats; cited from earlier work.
Details of data set [5]: method as in PMID 9408857. The conditions noted are these: rabbits; cited from earlier work.
Details of data set [6]: method as in PMID 9408857. The note with it: dogs; cited from earlier work.
Details of data set [7]: method as in PMID 9408857. The conditions noted are these: humans; cited from earlier work.
For data set [8] the following is noted: cited from earlier work. This is another data set of the same source.
The conditions of data set [9]: cited from earlier work. The source holds these as a separate data set.
For data set [10] the following is noted: cited from earlier work. The source holds these as a separate data set.
For data set [11] the following is noted: cited from earlier work. This is another data set of the same source.
On the set-up of data set [12]: method as in PMID 38399311. The conditions noted are these: liver microsomes, rats; cited from earlier work. A general note: Microsomes from liver hold many membrane-bound enzymes, among them those of drug oxidation.
On the set-up of data set [13]: method as in PMID 38399311. The note with it: liver microsomes, mice; cited from earlier work.
On the set-up of data set [14]: method as in PMID 38399311. The conditions noted are these: liver microsomes, humans; cited from earlier work.

Read-outs that look alike come from different tables or passages of the source.

With `OC(c1cc(C(F)(F)F)nc2c(C(F)(F)F)cccc12)C1CCCCN1` (stereo not shown) [mefloquine], the Clearance in data set [1] (in vivo) was 0.33 to 0.83 mL/min/kg.

As for `CO[C@H]1O[C@@H]2O[C@@]3(C)CC[C@H]4[C@H](C)CC[C@@H]([C@H]1C)[C@@]24OO3` [artemether], the Clearance in data set [1] (artemether alone) was 281.3 ± 67.3 mL/min/kg; in data set [1] (co-administered with pyronaridine), 466.7 ± 36 mL/min/kg.

Turning to `COc1cc(NC(C)CCCN)c2ncccc2c1` (stereo not shown) [primaquine], the “Estimated CLint, in vivo” value in [2] is “approximately 0.017 mL/min/kg”.

As to `CCCCN(CCCC)CC(O)c1cc(Cl)cc2c1-c1ccc(Cl)cc1/C2=C/c1ccc(Cl)cc1` (stereo not shown) [lumefantrine], the t1/2 in [3] (antimalarials) was 72 to 144 h.

For the compound `CNS(=O)(=O)Cc1ccc2[nH]cc(CCN(C)C)c2c1` [sumatriptan], the Clearance in data set [4] was 44.7 mL/min/kg; in data set [5] it was 26 mL/min/kg; in data set [6] it was 14 mL/min/kg; in data set [7], “approximately 1.10 L/h/kg”.

Turning to `Cc1ncc2n1-c1ccc(Cl)cc1C(c1ccccc1F)=NC2` [midazolam], the “CLint, in vivo” value was 79.2 mL/min/kg in [8] (rat) and 6.67 mL/min/kg in [9] (human). For the same compound, the results for the t1/2 entry in data set [8] (rats) and in [9] (humans) were “about 31 min” and 1.85 h, respectively.

Take `CCN(CC)CCCC(C)Nc1ccnc2cc(Cl)ccc12` (stereo not shown) [chloroquine]: the Clearance in data set [1] is 1.5 to 1.7 mL/min/kg.

Turning to `NC(Cc1cc(I)c(Oc2cc(I)c(O)c(I)c2)c(I)c1)C(=O)O` (stereo not shown) [thyroxine], the “CLint, in vitro” value in [10] (rat 1) was 1.08 mL/min/10^6 cells; in data set [10] (rat 2), 0.75 mL/min/10^6 cells; in [11] (human donor 1364), 0.61 mL/min/10^6 cells; in data set [11] (human donor Hu1362) it was 0.56 mL/min/10^6 cells.

As to `C[C@@H]1CC[C@H]2[C@@H](C)C(=O)O[C@@H]3O[C@@]4(C)CC[C@@H]1[C@]32OO4` [artemisinin], in [3] (in vivo), the t1/2 is 1 to 2 h.

For `CCCC(NCC)C(=O)c1ccccc1` (stereo not shown) [N-ethyl pentedrone], the t1/2 was 0.202 h in data set [12], 3.12 h in [13] and 12.8 h in data set [14].
